Reference: the NIST ThermoML archive (doi:10.1021/je060271a)
Numbers after ± are expanded uncertainties.

Conditions: 303.15 K, Liquid, Vibrating tube method

CCCCCCCC(=O)OCC(COC(=O)CCCCCCC)(COC(=O)CCCCCCC)COC(=O)CCCCCCC [pentaerythritol tetraoctanoate]
mass density (7240.6 kPa): 959.8 ± 1.2 kg/m3
mass density (7273.2 kPa): 959.8 ± 1.2 kg/m3
mass density (7299.8 kPa): 960 ± 1.2 kg/m3
mass density (7389.7 kPa): 960 ± 1.2 kg/m3
mass density (7422.6 kPa): 959.9 ± 1.2 kg/m3
mass density (7449.6 kPa): 959.9 ± 1.2 kg/m3
mass density (7483.3 kPa): 960 ± 1.2 kg/m3
mass density (7511.3 kPa): 960 ± 1.2 kg/m3
mass density (7544.9 kPa): 960 ± 1.2 kg/m3
mass density (7573.7 kPa): 960.1 ± 1.2 kg/m3
mass density (7608.5 kPa): 960.1 ± 1.2 kg/m3
mass density (7643.5 kPa): 960.1 ± 1.2 kg/m3
mass density (7673.8 kPa): 960.1 ± 1.2 kg/m3
mass density (7703.3 kPa): 960.1 ± 1.2 kg/m3
mass density (7739.3 kPa): 960.2 ± 1.2 kg/m3
mass density (7769.3 kPa): 960.2 ± 1.2 kg/m3
mass density (7806.2 kPa): 960.1 ± 1.2 kg/m3
mass density (7836.8 kPa): 960.2 ± 1.2 kg/m3
mass density (7874 kPa): 960.2 ± 1.2 kg/m3
mass density (7904.9 kPa): 960.1 ± 1.2 kg/m3
mass density (7943.2 kPa): 960.2 ± 1.2 kg/m3
mass density (8013.8 kPa): 960.3 ± 1.2 kg/m3
mass density (8160.1 kPa): 960.4 ± 1.2 kg/m3
mass density (8194.2 kPa): 960.5 ± 1.2 kg/m3
mass density (8236.1 kPa): 960.4 ± 1.2 kg/m3
mass density (8272 kPa): 960.5 ± 1.2 kg/m3
mass density (8310.6 kPa): 960.5 ± 1.2 kg/m3
mass density (8341.7 kPa): 960.5 ± 1.2 kg/m3
mass density (8372.2 kPa): 960.5 ± 1.2 kg/m3
mass density (8402.7 kPa): 960.5 ± 1.2 kg/m3
mass density (8428.6 kPa): 960.5 ± 1.2 kg/m3
mass density (8458.8 kPa): 960.7 ± 1.2 kg/m3
mass density (8489.8 kPa): 960.6 ± 1.2 kg/m3
mass density (8521.4 kPa): 960.7 ± 1.2 kg/m3
mass density (8548.1 kPa): 960.7 ± 1.2 kg/m3
mass density (8580.2 kPa): 960.7 ± 1.2 kg/m3
mass density (8612.1 kPa): 960.7 ± 1.2 kg/m3
mass density (8643.8 kPa): 960.7 ± 1.2 kg/m3
mass density (8676.1 kPa): 960.8 ± 1.2 kg/m3
mass density (8703.6 kPa): 960.8 ± 1.2 kg/m3
mass density (8736.1 kPa): 960.7 ± 1.2 kg/m3
mass density (8769.5 kPa): 960.9 ± 1.2 kg/m3
mass density (8802.3 kPa): 960.8 ± 1.2 kg/m3
mass density (8866 kPa): 960.8 ± 1.2 kg/m3
mass density (8901.6 kPa): 960.9 ± 1.2 kg/m3
mass density (8936.7 kPa): 960.9 ± 1.2 kg/m3
mass density (8961.2 kPa): 960.8 ± 1.2 kg/m3
mass density (8990.2 kPa): 960.9 ± 1.2 kg/m3
mass density (9019.5 kPa): 960.9 ± 1.2 kg/m3
mass density (9048.8 kPa): 960.9 ± 1.2 kg/m3
mass density (9078.2 kPa): 961 ± 1.2 kg/m3
mass density (9103.3 kPa): 961 ± 1.2 kg/m3
mass density (9132.9 kPa): 961.1 ± 1.2 kg/m3
mass density (9163.2 kPa): 961 ± 1.2 kg/m3
mass density (9193.9 kPa): 961.1 ± 1.2 kg/m3
mass density (9224.2 kPa): 961 ± 1.2 kg/m3
mass density (9250.4 kPa): 961.1 ± 1.2 kg/m3
mass density (9281.3 kPa): 961 ± 1.2 kg/m3
mass density (9371.4 kPa): 961.1 ± 1.2 kg/m3
mass density (9403.3 kPa): 961.2 ± 1.2 kg/m3
mass density (9435.5 kPa): 961.1 ± 1.2 kg/m3
mass density (9467.7 kPa): 961.2 ± 1.2 kg/m3
mass density (9500.5 kPa): 961.2 ± 1.2 kg/m3
mass density (9527.3 kPa): 961.2 ± 1.2 kg/m3
mass density (9559.2 kPa): 961.2 ± 1.2 kg/m3
mass density (9592.8 kPa): 961.2 ± 1.2 kg/m3
mass density (9618.8 kPa): 961.3 ± 1.2 kg/m3
mass density (9652.6 kPa): 961.3 ± 1.2 kg/m3
mass density (9687 kPa): 961.4 ± 1.2 kg/m3
mass density (9722.3 kPa): 961.4 ± 1.2 kg/m3
mass density (9750.6 kPa): 961.4 ± 1.2 kg/m3
mass density (9785.2 kPa): 961.3 ± 1.2 kg/m3
mass density (9821.4 kPa): 961.4 ± 1.2 kg/m3
mass density (9856.8 kPa): 961.4 ± 1.2 kg/m3
mass density (9893.5 kPa): 961.5 ± 1.2 kg/m3
mass density (9924.2 kPa): 961.5 ± 1.2 kg/m3
mass density (9961.2 kPa): 961.5 ± 1.2 kg/m3
mass density (9999 kPa): 961.5 ± 1.2 kg/m3
mass density (10037 kPa): 961.6 ± 1.2 kg/m3
mass density (10067 kPa): 961.6 ± 1.2 kg/m3
mass density (10092 kPa): 961.6 ± 1.2 kg/m3
mass density (10122 kPa): 961.6 ± 1.2 kg/m3
mass density (10152 kPa): 961.6 ± 1.2 kg/m3
mass density (10177 kPa): 961.6 ± 1.2 kg/m3
mass density (10208 kPa): 961.5 ± 1.2 kg/m3
mass density (10238 kPa): 961.7 ± 1.2 kg/m3
mass density (10270 kPa): 961.6 ± 1.2 kg/m3
mass density (10302 kPa): 961.8 ± 1.2 kg/m3
mass density (10334 kPa): 961.7 ± 1.2 kg/m3
mass density (10357 kPa): 961.7 ± 1.2 kg/m3
mass density (10380 kPa): 961.8 ± 1.2 kg/m3
mass density (10403 kPa): 961.6 ± 1.2 kg/m3
mass density (10423 kPa): 961.7 ± 1.2 kg/m3
mass density (10447 kPa): 961.7 ± 1.2 kg/m3
mass density (10471 kPa): 961.7 ± 1.2 kg/m3
mass density (10491 kPa): 961.8 ± 1.2 kg/m3
mass density (10514 kPa): 961.8 ± 1.2 kg/m3
mass density (10538 kPa): 961.9 ± 1.2 kg/m3
mass density (10562 kPa): 961.9 ± 1.2 kg/m3
mass density (10582 kPa): 961.9 ± 1.2 kg/m3
mass density (10607 kPa): 961.9 ± 1.2 kg/m3
mass density (10631 kPa): 961.9 ± 1.2 kg/m3
mass density (10656 kPa): 961.9 ± 1.2 kg/m3
mass density (10680 kPa): 961.9 ± 1.2 kg/m3
mass density (10702 kPa): 962 ± 1.2 kg/m3
mass density (10727 kPa): 962 ± 1.2 kg/m3
mass density (10751 kPa): 961.9 ± 1.2 kg/m3
mass density (10779 kPa): 961.9 ± 1.2 kg/m3
mass density (10801 kPa): 961.9 ± 1.2 kg/m3
mass density (10826 kPa): 962 ± 1.2 kg/m3
mass density (10852 kPa): 962.1 ± 1.2 kg/m3
mass density (10878 kPa): 962.1 ± 1.2 kg/m3
mass density (10899 kPa): 962 ± 1.2 kg/m3
mass density (10924 kPa): 962.1 ± 1.2 kg/m3
mass density (10950 kPa): 962.1 ± 1.2 kg/m3
mass density (10975 kPa): 962.1 ± 1.2 kg/m3
mass density (10996 kPa): 962.2 ± 1.2 kg/m3
mass density (11075 kPa): 962.1 ± 1.2 kg/m3
mass density (11103 kPa): 962.2 ± 1.2 kg/m3
mass density (11125 kPa): 962.2 ± 1.2 kg/m3
mass density (11152 kPa): 962.2 ± 1.2 kg/m3
mass density (11180 kPa): 962.2 ± 1.2 kg/m3
mass density (11202 kPa): 962.2 ± 1.2 kg/m3
mass density (11229 kPa): 962.4 ± 1.2 kg/m3
mass density (11257 kPa): 962.2 ± 1.2 kg/m3
mass density (11285 kPa): 962.3 ± 1.2 kg/m3
mass density (11313 kPa): 962.3 ± 1.2 kg/m3
mass density (11337 kPa): 962.3 ± 1.2 kg/m3
mass density (11365 kPa): 962.4 ± 1.2 kg/m3
mass density (11393 kPa): 962.3 ± 1.2 kg/m3
mass density (11422 kPa): 962.3 ± 1.2 kg/m3
mass density (11446 kPa): 962.4 ± 1.2 kg/m3
mass density (11475 kPa): 962.3 ± 1.2 kg/m3
mass density (11504 kPa): 962.4 ± 1.2 kg/m3
mass density (11533 kPa): 962.4 ± 1.2 kg/m3
mass density (11562 kPa): 962.4 ± 1.2 kg/m3
mass density (11587 kPa): 962.5 ± 1.2 kg/m3
mass density (11616 kPa): 962.5 ± 1.2 kg/m3
mass density (11645 kPa): 962.6 ± 1.2 kg/m3
mass density (11669 kPa): 962.5 ± 1.2 kg/m3
mass density (11699 kPa): 962.6 ± 1.2 kg/m3
mass density (11729 kPa): 962.4 ± 1.2 kg/m3
mass density (11760 kPa): 962.6 ± 1.2 kg/m3
mass density (11790 kPa): 962.6 ± 1.2 kg/m3
mass density (11816 kPa): 962.6 ± 1.2 kg/m3
mass density (11847 kPa): 962.6 ± 1.2 kg/m3
mass density (11878 kPa): 962.7 ± 1.2 kg/m3
mass density (11909 kPa): 962.6 ± 1.2 kg/m3
